Reference: PubChem BioAssay (NCI)
Values joined by “and” are separate entries in the source; they are usually repeats but may differ in a detail not shown here. Equal entries are not always repeated.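 Test compounds were applied to cells in 96-well plates for 48 hours at 5 doses. Abbreviation: GI50, concentration required for 50% inhibition of growth. TGI denotes the concentration required for complete inhibition of growth.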 Where a SMILES comes first, the peptide text is derived from it. [ ]: non-standard residue; d: D form. The star is where a group is joined. ξ: configuration not given here. X3 = COc1ccc(C(N*)c2ccc(OC)cc2)cc1; NMeF = CN[C@@H](Cc1ccccc1)C(=O)O; NMeD = CN[C@@H](CC(=O)O)C(=O)O; NMeV = CN[C@H](C(=O)O)C(C)C; ξNMeV = CNC(C(=O)O)C(C)C; Boc = CC(C)(C)OC(=O)*; ξNMeA = CNC(C)C(=O)O; ξV = CC(C)C(N)C(=O)O

Columns and labels:
Experiment in all cases: DTP human tumour cell line panel, 48 h
[1] = tested on: HT29 colon
[2] = tested on: KM12 colon
[3] = tested on: MDA-MB-231 breast
[4] = tested on: MOLT-4 leukemia
[5] = tested on: NCI/ADR-RES ovarian
[6] = tested on: OVCAR-4 ovarian
[7] = tested on: PC-3 prostate
[8] = tested on: SK-OV-3 ovarian
[9] = tested on: SN12C renal
[10] = tested on: SR leukemia

Structure (SMILES) | GI50 [1] [nM] | TGI [1] | GI50 [2] [µM] | TGI [2] | GI50 [3] [nM] | TGI [3] [µM] | GI50 [4] [nM] | TGI [4] | GI50 [5] [µM] | TGI [5] [µM] | GI50 [6] [µM] | TGI [6] | GI50 [7] [µM] | TGI [7] [µM] | GI50 [8] [µM] | TGI [8] | GI50 [9] [µM] | TGI [9] | GI50 [10] [nM] | TGI [10]
CN(C)c1cc(NN=C(c2ccc(O)cc2)c2ccc(O)cc2)c([N+](=O)[O-])cc1[N+](=O)[O-] | 10000 | 23.7 µM | 3.73 | 13.8 µM | 4720 | 17.5 | 3370 | 23.2 µM | 5.3 | 27 | 5.77 | 28 µM | 4.85 | 32.2 | 14.4 | 36.6 µM | 10.4 | 23.7 µM | 3150 | 22.8 µM
CC(C)[C@@H]1C=C2CC[C@H]3[C@](C)(CN)CCC[C@]3(C)[C@H]2CC1 | 1840 | 3.64 µM | 1.76 | 3.23 µM | 2120 | 5.47 | 2350 | 6.03 µM | 2.62 | 7.32 | 15.1 | 34.3 µM | 5.59 | 19.6 | 13.2 | 26 µM | 3.42 | 14 µM | 2780 | 12.4 µM
COc1ccc(CCN=C2NC(=O)/C(=C/c3ccc4ncccc4c3)S2)cc1 | > 25000 | > 25 µM | > 25 | > 25 µM | > 25000 | > 25 | > 25000 | > 25 µM | > 25 | > 25 | > 25 | > 25 µM | > 25 | > 25 | > 25 | > 25 µM | > 25 | > 25 µM | 12600 | > 25 µM
O=C(O)c1nc2nc(Cl)c(Cl)nc2[nH]1 |  | > 100 µM |  | > 100 µM |  | > 100 |  | > 100 µM |  | > 100 |  | > 100 µM |  | > 100 |  | > 100 µM |  | > 100 µM |  | > 100 µM
CCN(C(=O)N1CCN(c2cc3c(cc2F)c(=O)c(C(=O)O)cn3C2CC2)CC1)c1nc(-c2ccc(Cl)cc2)cs1 | 1060 | > 100 µM | 1.29 | > 100 µM | 1690 | 6.35 | 542 | 3.67 µM | 2.07 | 13.7 | 1.48 | > 57.1 µM | 0.858 | > 26 | 1.83 | 6.46 µM | 0.991 | > 100 µM | 272 | 0.897 µM
O=C(/C(=C/c1ccc([N+](=O)[O-])cc1)SCc1ccccc1)c1ccc(Cl)cc1 | 2540 | 5.75 µM | 2.34 | 6.91 µM | 2670 | 10.2 | 2610 | > 100 µM | 3.38 | 17.7 | 3.24 | 13.3 µM | 2.35 | 5.43 | 14.4 | 36.4 µM | 2.66 | 8.58 µM | 1760 | 6.63 µM
CCn1c(-c2nonc2N)nc2c(C#CC(C)(C)O)nc(OC[C@@H](N)c3ccccc3)cc21 | 4900 | 9.53 µM | 3.05 | 6.75 µM | 4680 | 8.86 | 4420 | 16 µM | 5.16 | 11.7 | 6.78 | 13.3 µM | 7.73 | 25 | 4.16 | 9.47 µM | 3.96 | 7.66 µM | 5670 | 16.8 µM
Cc1nnc(NC(=O)c2nc(S(=O)(=O)Cc3ccc(F)cc3)ncc2Cl)s1 | 2340 | 5.8 µM | 18.5 | 37 µM | 1780 | 3.31 | 2020 | 4.38 µM | 14.2 | 50.1 | 1.8 | 3.8 µM | 10 | 22.9 | 17.9 | 32 µM | 2.39 | 6.56 µM | 1440 | 3.55 µM
Nc1ccccc1SC(CC(=O)c1ccccc1)c1cccc([N+](=O)[O-])c1 (stereo unspecified) | 5790 | 23 µM | 6.24 | 19.3 µM | 14400 | 28.3 | 17600 | 50.5 µM | 20.4 | 42.8 | 14.6 | 27.8 µM | 12.5 | 25.5 | 18.1 | 32 µM | 13.9 | 26.9 µM | 2550 | 6.46 µM
Nc1cc(NN=C(c2ccc(O)cc2)c2ccc(O)cc2)c([N+](=O)[O-])cc1[N+](=O)[O-] | 2630 | 8.19 µM | 1.52 | 2.85 µM | 2220 | 5.38 | 2760 | 7.69 µM | 3.49 | 11.6 | 2.54 | 7.47 µM | 3.31 | 12.4 | 2.35 | 6.4 µM | 1.58 | 3.4 µM | 2030 | 7.48 µM
COc1ccc(C2[C@@H](c3ccccc3)C(=O)N2c2cc(OC)c(OC)c(OC)c2)cc1F (stereo partly specified) | 26 | 0.0781 µM | 0.0331 | > 100 µM | 45.2 | > 100 | 38.1 | > 100 µM | 0.0394 | > 100 | 0.0871 | > 100 µM | 0.0403 | > 100 | 0.0348 | > 100 µM | 0.0561 | > 100 µM | 37.3 | > 100 µM
COc1ccc(C(NC(=O)C[C@@H](C(=O)N(C)C(C)C(=O)O)N(C)C(=O)[C@@H]2CCCN2C(=O)[C@H](C(C)C)N(C)C(=O)C(C(C)C)N(C)C(=O)[C@H](Cc2ccccc2)N(C)C(=O)C(NC(=O)OC(C)(C)C)C(C)C)c2ccc(OC)cc2)cc1 (stereo partly specified) (Boc-[ξV][NMeF][ξNMeV][NMeV]P[NMeD](X3)[ξNMeA]-OH) |  | 37.2 µM and 32.4 µM | 17.5 | 15.2 µM and 34.1 µM |  | 32.3 | 17000 | 19.3 µM and 43.7 µM |  | > 37.5 | 24.8 | 37.5 µM and 64.5 µM |  | 37.5 | 19.2 | > 37.5 µM and 33.3 µM | 19.1 | 37.5 µM and 38.9 µM | 3.75 | 37.5 µM and 36 µM
